Values after ≈ are worked out from the molar mass of the structure shown.
Legend:
Aspergillus flavus [1] = assay: Antifungal activity against Aspergillus flavus; assay type: functional
Aspergillus niger [2] = assay: Antifungal activity against Aspergillus niger; assay type: functional
Fusarium oxysporum = assay: Antifungal activity against Fusarium oxysporum; assay type: functional
Escherichia coli [3] = assay: Antimicrobial activity against Escherichia coli; assay type: functional
Bacillus subtilis [4] = assay: Antimicrobial activity against Bacillus subtilis; assay type: functional
Salmonella typhimurium = assay: Antimicrobial activity against Salmonella typhimurium; assay type: functional, Salmonella enterica subsp. enterica serovar Typhimurium; details: Salmonella enterica
Priestia megaterium = assay: Antimicrobial activity against Bacillus megaterium; assay type: functional
Micrococcus luteus [5] = assay: Antibacterial activity against Micrococcus luteus; assay type: functional
SiHa = assay: Growth inhibition of human SiHa cells; assay type: functional
MDA-MB-231 = assay: Growth inhibition of human MDA-MB-231 cells; assay type: functional
PANC-1 = assay: Growth inhibition of human PANC1 cells; assay type: functional
Pseudomonas aeruginosa [6] = assay: Antimicrobial activity against Pseudomonas aeruginosa; assay type: functional
Staphylococcus aureus [7] = assay: Antimicrobial activity against Staphylococcus aureus; assay type: functional
Bacillus cereus [8] = assay: Antimicrobial activity against Bacillus cereus; assay type: functional
Candida albicans [9] = assay: Antifungal activity against Candida albicans; assay type: functional
Staphylococcus aureus [10] = assay: Antimicrobial activity against Staphylococcus aureus assessed as zone of inhibition at 250 ug/ml; assay type: functional; details: read-out: IZ
Bacillus cereus [11] = assay: Antimicrobial activity against Bacillus cereus assessed as zone of inhibition at 250 ug/ml; assay type: functional; details: read-out: IZ
Escherichia coli [12] = assay: Antimicrobial activity against Escherichia coli assessed as zone of inhibition at 250 ug/ml; assay type: functional; details: read-out: IZ
Pseudomonas aeruginosa [13] = assay: Antimicrobial activity against Pseudomonas aeruginosa assessed as zone of inhibition at 250 ug/ml; assay type: functional; details: read-out: IZ
Candida albicans [14] = assay: Antifungal activity against Candida albicans assessed as zone of inhibition at 250 ug/ml; assay type: functional; details: read-out: IZ
Aspergillus niger [15] = assay: Antifungal activity against Aspergillus niger assessed as zone of inhibition at 250 ug/ml; assay type: functional; details: read-out: IZ
Escherichia coli [16] = assay: Antimicrobial activity against Escherichia coli assessed as zone of inhibition at 250 ug/ml after 24 hrs by disk diffusion method; assay type: functional; details: read-out: IZ
Staphylococcus aureus [17] = assay: Antimicrobial activity against Staphylococcus aureus ATCC 25923 assessed as zone of inhibition at 100 ug/ml after 24 hrs by disc diffusion method; assay type: functional; details: ATCC 25923, 24 h, read-out: IZ
Klebsiella pneumoniae = assay: Antimicrobial activity against Klebsiella pneumoniae ATCC 700603 assessed as zone of inhibition at 100 ug/ml after 24 hrs by disc diffusion method; assay type: functional; details: ATCC 700603, 24 h, read-out: IZ
Streptococcus agalactiae = assay: Antimicrobial activity against Streptococcus agalactiae 55118 assessed as zone of inhibition at 100 ug/ml after 24 hrs by disc diffusion method; assay type: functional; details: Streptococcus agalactiae, 55118, 24 h; read-out: IZ
Staphylococcus aureus [18] = assay: Antibacterial activity against methicillin resistant Staphylococcus aureus N315 after 24 hrs by two-fold broth serial dilution method; assay type: functional; details: N315, 24 h
Bacillus subtilis [19] = assay: Antibacterial activity against Bacillus subtilis ATCC 21216 after 24 hrs by two-fold broth serial dilution method; assay type: functional; details: ATCC 21216, 24 h
Micrococcus luteus [20] = assay: Antibacterial activity against Micrococcus luteus ATCC 4698 after 24 hrs by two-fold broth serial dilution method; assay type: functional; details: ATCC 4698, 24 h
Escherichia coli [21] = assay: Antimicrobial activity against Escherichia coli JM 109 after 24 hrs by two-fold broth serial dilution method; assay type: functional; details: JM 109, 24 h
Pseudomonas aeruginosa [22] = assay: Antimicrobial activity against Pseudomonas aeruginosa ATCC 27853 after 24 hrs by two-fold broth serial dilution method; assay type: functional; details: ATCC 27853, 24 h
Shigella dysenteriae = assay: Antimicrobial activity against Shigella dysenteriae after 24 hrs by two-fold broth serial dilution method; assay type: functional
Candida albicans [23] = assay: Antifungal activity against Candida albicans ATCC 76615 after 24 hrs; assay type: functional; details: ATCC 76615, 24 h
Cyberlindnera jadinii = assay: Antifungal activity against Candida utilis after 24 hrs; assay type: functional; details: Williopsis jadinii
Aspergillus flavus [24] = assay: Antifungal activity against Aspergillus flavus after 24 hrs; assay type: functional
Saccharomyces cerevisiae = assay: Antifungal activity against Saccharomyces cerevisiae after 24 hrs; assay type: functional
Pichia norvegensis = assay: Antifungal activity against Candida mycoderma after 24 hrs; assay type: functional

`c1ccc(-n2cc(-c3nnn[nH]3)nn2)cc1` showed an MIC (Aspergillus flavus [1]) of 100 µg/mL (≈ 469 µM), an MIC (Aspergillus niger [2]) of 100 µg/mL (≈ 469 µM) and an MIC (Fusarium oxysporum) of 100 µg/mL (≈ 469 µM).

With `CCn1nnnc1SCCC(=O)N1CCN(c2cc3c(cc2F)c(=O)c(C(=O)O)cn3C2CC2)CC1` the MIC (Escherichia coli [3]) was 15.6 µg/mL (≈ 30.3 µM), the MIC (Bacillus subtilis [4]) was 15.6 µg/mL (≈ 30.3 µM) and the MIC (Salmonella typhimurium) was 15.6 µg/mL (≈ 30.3 µM). It also gave an MIC (Priestia megaterium) of 15.6 µg/mL (≈ 30.3 µM), an MIC (Micrococcus luteus [5]) of 15.6 µg/mL (≈ 30.3 µM) and a GI50 (SiHa) of at most 1000 nM. It also gave a GI50 (MDA-MB-231) of at most 1000 nM and a GI50 (PANC-1) of at most 1000 nM.

`O=[N+]([O-])c1ccc(-c2nnnn2-c2nc3ccccc3s2)cc1` gave an MIC (Escherichia coli [3]) of 50 to 100 µg/mL (≈ 154 to 308 µM), an MIC (Pseudomonas aeruginosa [6]) of 50 to 100 µg/mL (≈ 154 to 308 µM) and an MIC (Staphylococcus aureus [7]) of 50 to 100 µg/mL (≈ 154 to 308 µM). For the same molecule, the MIC (Bacillus cereus [8]) was 50 to 100 µg/mL (≈ 154 to 308 µM), the MIC (Candida albicans [9]) was 50 to 100 µg/mL (≈ 154 to 308 µM) and the zone of inhibition at 250 µg/mL (Staphylococcus aureus [10]) was 16 to 26 mm. The zone of inhibition at 250 µg/mL (Bacillus cereus [11]) was 16 to 26 mm, the zone of inhibition at 250 µg/mL (Escherichia coli [12]) was 16 to 26 mm and the zone of inhibition at 250 µg/mL (Pseudomonas aeruginosa [13]) was 16 to 26 mm. For the same molecule, the zone of inhibition at 250 µg/mL (Candida albicans [14]) was 16 to 26 mm, the zone of inhibition at 250 µg/mL (Aspergillus niger [15]) was 16 to 26 mm and the MIC (Aspergillus niger [2]) was 50 to 100 µg/mL (≈ 154 to 308 µM). For the same molecule, the zone of inhibition at 250 µg/mL (Escherichia coli [16]) was 18 to 26 mm.

With `CCCn1nnnc1Sc1c(OC)nc(N)nc1OC` the zone of inhibition at 100 µg/mL (Staphylococcus aureus [17]) was 24 mm, the zone of inhibition at 100 µg/mL (Klebsiella pneumoniae) was 24 mm and the zone of inhibition at 100 µg/mL (Streptococcus agalactiae) was 24 mm.

Work on `Cc1cc(=O)oc2cc(OCC(O)Cn3nnnc3C)ccc12` (stereo not given) yielded an MIC (Staphylococcus aureus [18]) of 4 to 512 µg/mL (≈ 12.6 to 1620 µM), an MIC (Bacillus subtilis [19]) of 4 to 512 µg/mL (≈ 12.6 to 1620 µM) and an MIC (Micrococcus luteus [20]) of 4 to 512 µg/mL (≈ 12.6 to 1620 µM). It also gave an MIC (Escherichia coli [21]) of 4 to 512 µg/mL (≈ 12.6 to 1620 µM), an MIC (Pseudomonas aeruginosa [22]) of 4 to 512 µg/mL (≈ 12.6 to 1620 µM) and an MIC (Shigella dysenteriae) of 4 to 512 µg/mL (≈ 12.6 to 1620 µM). The MIC (Candida albicans [23]) was 4 to 512 µg/mL (≈ 12.6 to 1620 µM), the MIC (Cyberlindnera jadinii) was 4 to 512 µg/mL (≈ 12.6 to 1620 µM) and the MIC (Aspergillus flavus [24]) was 4 to 512 µg/mL (≈ 12.6 to 1620 µM). It also gave an MIC (Saccharomyces cerevisiae) of 4 to 512 µg/mL (≈ 12.6 to 1620 µM) and an MIC (Pichia norvegensis) of 4 to 512 µg/mL (≈ 12.6 to 1620 µM).

With `CC[C@H]1OC(=O)[C@H](C)[C@@H](O[C@H]2C[C@@](C)(OC)[C@@H](O)[C@H](C)O2)[C@H](C)[C@@H](O[C@@H]2O[C@H](C)C[C@H](N(C)C)[C@H]2O)[C@](C)(O)C[C@@H](C)C(=O)[C@H](C)[C@@H](O)[C@]1(C)O` [ERYTHROMYCIN] the zone of inhibition at 100 µg/mL (Staphylococcus aureus [17]) was 10 to 24 mm, the zone of inhibition at 100 µg/mL (Klebsiella pneumoniae) was 10 to 24 mm and the zone of inhibition at 100 µg/mL (Streptococcus agalactiae) was 10 to 24 mm.

Work on `Cc1cc(=O)oc2cc(OCC(O)Cn3nnnc3C)cc(OCC(O)Cn3nnnc3C)c12` (stereo not given) yielded an MIC (Staphylococcus aureus [18]) of 32 to 512 µg/mL (≈ 67.7 to 1080 µM), an MIC (Bacillus subtilis [19]) of 32 to 512 µg/mL (≈ 67.7 to 1080 µM) and an MIC (Micrococcus luteus [20]) of 32 to 512 µg/mL (≈ 67.7 to 1080 µM). For the same molecule, the MIC (Escherichia coli [21]) was 32 to 512 µg/mL (≈ 67.7 to 1080 µM), the MIC (Pseudomonas aeruginosa [22]) was 32 to 512 µg/mL (≈ 67.7 to 1080 µM) and the MIC (Shigella dysenteriae) was 32 to 512 µg/mL (≈ 67.7 to 1080 µM). It also gave an MIC (Candida albicans [23]) of 32 to 512 µg/mL (≈ 67.7 to 1080 µM), an MIC (Cyberlindnera jadinii) of 32 to 512 µg/mL (≈ 67.7 to 1080 µM) and an MIC (Aspergillus flavus [24]) of 32 to 512 µg/mL (≈ 67.7 to 1080 µM). It also gave an MIC (Saccharomyces cerevisiae) of 32 to 512 µg/mL (≈ 67.7 to 1080 µM) and an MIC (Pichia norvegensis) of 32 to 512 µg/mL (≈ 67.7 to 1080 µM).

In the case of `Clc1ccc(-n2cc(-c3nnn[nH]3)nn2)cc1`, the MIC (Aspergillus flavus [1]) is reported as 100 µg/mL (≈ 404 µM), the MIC (Aspergillus niger [2]) is reported as 100 µg/mL (≈ 404 µM) and the MIC (Fusarium oxysporum) is reported as 100 µg/mL (≈ 404 µM).

Source: ChEMBL document CHEMBL4342421, “Current scenario of tetrazole hybrids for antibacterial activity” (Eur J Med Chem, 2019)
